Assay results reported in paper PMC7542159, “Receptor occupancy of dual glucagon-like peptide 1/glucagon receptor agonist SAR425899 in individuals with type 2 diabetes” (Scientific Reports, 2020).

How the values were obtained:
GLP1R = conditions: higher at GLP1R; cited from earlier work
Description: Noteworthy, the in vitro binding affinity for SAR425899 at the GLP1R was ~ fivefold higher than at the GCGR. This ratio of binding capacities has been chosen to prevent unwanted glucagon effects like increase of blood glucose. In fact, an increase of blood glucose has not been observed so far in a clinical setting. […] The exposure achieved with this dose in humans, however, might be too low to ...

human GCGR = target: T1, human GCGR (Homo sapiens, UniProt P47871); experiment: In vitro displacement of [^68Ga]Ga-DO3A-Tuna-2 in HEK293 cells overexpressing the human GCGR; type: binding; conditions: pre-treatment with 50 µM, three independent experiments
T1 construct: expressed in transfected cells; host or cells: HEK293
T1 sequence (P47871 26-477): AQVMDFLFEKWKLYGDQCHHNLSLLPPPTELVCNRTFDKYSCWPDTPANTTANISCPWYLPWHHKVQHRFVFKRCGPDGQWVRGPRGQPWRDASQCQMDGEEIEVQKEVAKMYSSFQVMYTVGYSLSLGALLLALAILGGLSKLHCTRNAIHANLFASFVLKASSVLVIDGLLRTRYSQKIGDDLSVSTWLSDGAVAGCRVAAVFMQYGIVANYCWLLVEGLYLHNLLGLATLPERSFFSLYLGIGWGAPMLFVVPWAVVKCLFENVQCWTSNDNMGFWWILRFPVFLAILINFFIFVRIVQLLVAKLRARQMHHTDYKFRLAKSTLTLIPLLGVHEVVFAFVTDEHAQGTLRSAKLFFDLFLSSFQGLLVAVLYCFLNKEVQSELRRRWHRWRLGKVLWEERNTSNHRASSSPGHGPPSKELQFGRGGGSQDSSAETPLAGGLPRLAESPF
Procedure: Figure 5 [^68Ga]Ga-DO3A-Tuna-2 was displaced by SAR525899 in vitro. HEK293 cells overexpressing the human GCGR were incubated with either [^68Ga]Ga-DO3A-Tuna-2 alone, or following pre-treatment with 50 µM SAR525899. Data from three independent repeated experiments. Stars indicate p < 0.001 as assessed by a Students t-test.

[1] = Plasma pharmacokinetics of SAR425899 (LC-MS/MS); conditions: human, in vivo, sc, 0.2 mg
Procedure: Blood samples were collected at multiple time points after the last dose on Day 20 for measurement of SAR425899 in plasma using a liquid chromatography with tandem mass spectrometry (LC–MS/MS) method. Peak plasma concentrations (Cmax), time to Cmax (tmax) and area under the plasma concentration versus time curve for the last measurable plasma concentration (AUC0–last) were calculated using noncompartmental methods.

[2] = Liver volume on CT images; type: in vivo, human; conditions: for Liver volume change: Fig. 2B
Procedure: Both factors could potentially quantitatively impact the binding of [^68Ga]Ga-DO3A-Tuna-2 in the liver. Thus, the SUV55min at follow-up investigation was proportionally corrected for the decrease in liver volume compared to baseline. Additionally, SUV55min at baseline was corrected to the plasma glucagon value of the individual at follow-up to enable direct comparison between the PET assessments.
Marked weight loss and glucose lowering, as observed in this study, may have rapid and meaningful effects on the hepatic volume in short time periods, due primarily to the depletion of liver glycogen, which in turn bind large amounts of water. A reduction of the liver volume due to decrease in glycogen and water could likely affect the PET data by increasing the hepatocyte density (and in turn the GCGR density) per voxel. The liver volume was therefore assessed on CT images, and the [^68Ga]Ga-DO3A-Tuna-2 liver uptake SUV55min data corrected for the corresponding change in hepatic volume on an individual level. However, this correction may also introduce errors especially since there are inhomogeneities in GCGR expression levels in different parts of the liver (Fig. 3A,C,E). Furthermore, this correction assumes negligible changes on GCGR expression on hepatocytes over time. The occupancy data before the different corrections are therefore reported separately in Fig. 4C,D. Further corrections regarding the potentially non-isotropic GCGR expression could be attempted, but regardless the impact on the occupancy is expected to be low, while potentially introducing noise to the assessment. [^68Ga]Ga-DO3A-Exendin-4 uptake in pancreas is not expected to require correction, as no similar mechanism for rapid volume change is present in pancreas.

CCCCCCCCCCCCCCCC(=O)N[C@@H](CCC(=O)N[C@@H](CCC(=O)NCCCC[C@H](NC(=O)[C@H](CCC(N)=O)NC(=O)[C@H](CCCCN)NC(=O)[C@H](CO)NC(=O)[C@H](CC(C)C)NC(=O)[C@H](CC(=O)O)NC(=O)[C@H](CO)NC(=O)[C@@H](NC(=O)[C@H](Cc1ccccc1)NC(=O)[C@@H](NC(=O)CNC(=O)[C@H](CCC(N)=O)NC(=O)[C@@H](CO)NC(=O)[C@@H](N)Cc1c[nH]cn1)[C@@H](C)O)[C@@H](C)O)C(=O)N[C@@H](CCC(=O)O)C(=O)N[C@@H](CO)C(=O)N[C@@H](CCCCN)C(=O)N[C@@H](C)C(=O)N[C@@H](C)C(=O)N[C@@H](CCC(N)=O)C(=O)N[C@@H](CC(=O)O)C(=O)N[C@@H](Cc1ccccc1)C(=O)N[C@H](C(=O)N[C@@H](CCC(=O)O)C(=O)N[C@@H](Cc1c[nH]c2ccccc12)C(=O)N[C@@H](CC(C)C)C(=O)N[C@@H](CCCCN)C(=O)N[C@@H](C)C(=O)NCC(=O)NCC(=O)N1CCC[C@H]1C(=O)N[C@@H](CO)C(=O)N[C@@H](CO)C(=O)NCC(=O)N[C@@H](C)C(=O)N1CCC[C@H]1C(=O)N1CCC[C@H]1C(=O)N1CCC[C@H]1C(=O)N[C@@H](CO)C(N)=O)[C@@H](C)CC)C(=O)O)C(=O)O [SAR425899]
in vitro binding affinity at the GLP1R relative to the GCGR (GLP1R): ~ fivefold
displacement of [^68Ga]Ga-DO3A-Tuna-2 (human GCGR; p < 0.001): competes for the same binding site
displacement of [^68Ga]Ga-DO3A-Tuna-2 (human GCGR; p < 0.001, listed as SAR525899): displaced
AUC(0-t) [1]: 217 ng·h/mL
Cmax [1]: 25.1 ng/mL
Tmax [1]: 7.62 h
Liver volume change ([2]; 0.12mg): -0.8%
Liver volume change ([2]; 0.2mg): -10.4%
decrease in liver volume ([2]; under treatment with SAR425899, average (SD)): 10.4 (6.1) %
liver volume at follow up ([2]; under treatment with SAR425899, mean (SD), baseline 2.14 (0.45) dm^3): 1.91 (0.36) dm^3
